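Test compounds were applied to cells in 96-well plates for 48 hours at 5 doses. TGI marks complete inhibition of growth.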

Some test systems named below: P388/ADR leukemia; SNB-78 CNS; SN12K1 renal; M19-MEL melanoma; XF 498 CNS; DLD-1 colon; HOP-18 NSCLC; KM20L2 colon; P388 leukemia; LXFL 529 NSCLC; DMS 114 small cell lung; RXF-631 renal.
What all share (assay): NCI tumour cell line growth inhibition, 48 h

On to `O=P1(Oc2ccc(Cl)cc2Cl)Oc2ccc3ccccc3c2-c2c(ccc3ccccc23)O1`, for which the TGI with P388/ADR leukemia was over 100 µM; in the test on SNB-78 CNS, over 83.8 µM; in the test on SN12K1 renal, 43.1 µM; with M19-MEL melanoma, 47.9 µM; with XF 498 CNS it was 56.7 µM; in the test with DLD-1 colon, over 100 µM. In addition, the figures for the TGI in the test on HOP-18 NSCLC, with KM20L2 colon and in the test with P388 leukemia were over 100 µM, over 76.2 µM and over 100 µM, respectively.

For `CC(=O)NC1=C(NC(C)(C)C)C(=O)c2ccccc2C1=O`, the TGI in the test with SNB-78 CNS was found to be 99.1 µM; in the test on M19-MEL melanoma, 28.7 µM; in the test on LXFL 529 NSCLC, 31.7 µM; in the test on XF 498 CNS, 23.1 µM; in the test with DLD-1 colon it was 34.3 µM; in the test on HOP-18 NSCLC, 28.4 µM. Besides, the values for the TGI with KM20L2 colon and in the test on DMS 114 small cell lung were 38 µM and 54.3 µM, respectively.

In the case of `COc1ccc(N2C(=O)[C@H]3[C@H]4CC(C(C)(C)C)CC[C@H]4c4c(n(C)c5ccccc45)[C@H]3C2=O)cc1` (some centres undefined), the TGI in the test on M19-MEL melanoma, with LXFL 529 NSCLC, in the test with XF 498 CNS, in the test with DLD-1 colon, in the test on HOP-18 NSCLC and in the test on DMS 114 small cell lung was over 100 µM in each case.

As to `CC(=O)OC[C@]1(C)CCCC2(C)C1CCC1C=C(C)[C@H]3CCC12C3` (some centres undefined), the TGI in the test with SNB-78 CNS, in the test with M19-MEL melanoma, with LXFL 529 NSCLC, in the test with DLD-1 colon and in the test with KM20L2 colon was over 100 µM in each case.

`Cc1nc(C(N)=S)sc1C(=O)CC(=O)C(=O)Nc1ccccc1[N+](=O)[O-]`: the TGI in the test on RXF-631 renal, with SNB-78 CNS, with M19-MEL melanoma, in the test on LXFL 529 NSCLC, in the test on DLD-1 colon and in the test on HOP-18 NSCLC was over 100 µM in each case. The TGI in the test with KM20L2 colon and with DMS 114 small cell lung was over 100 µM in each case.

`Cc1ccc(/C(O)=C/c2nc3c(nc2NC24CC5CC(CC(C5)C2)C4)c(=O)oc2ccccc23)cc1`: the TGI in the test on M19-MEL melanoma, with LXFL 529 NSCLC, in the test on XF 498 CNS, with DLD-1 colon, with KM20L2 colon and in the test with DMS 114 small cell lung was over 100 µM in each case.

On to `Cc1ccccc1NC(=O)c1c(C)oc2c1C(=O)c1ccccc1C2=O`, for which the TGI is 5.98 µM with SNB-78 CNS; 26.6 µM with M19-MEL melanoma; over 55.9 µM with LXFL 529 NSCLC; over 70 µM in the test with XF 498 CNS; over 68.6 µM in the test on DLD-1 colon; over 100 µM in the test with KM20L2 colon. The same compound yielded a TGI in the test with DMS 114 small cell lung of 68 µM.
